The record followed here is patent US7320890B2, “Soluble steroidal peptides for nucleic acid delivery” (University of Utah Research Foundation, priority 2001, dated 2008).

Where a SMILES comes first, the peptide text is derived from it. Where no end group is shown, it is not given here. The star is where a group is joined. Lithocholoyl = C[C@H](CCC(=O)*)[C@H]1CC[C@H]2[C@@H]3CC[C@@H]4C[C@H](O)CC[C@]4(C)[C@H]3CC[C@]12C

Data set [1] relates to CT-26 colon carcinoma cell lines. As to the kind of experiment: In vitro transfection, luciferase activity. It is filed as cell-based. Particulars: CT-26 cells, controls without carrier conjugate or without plasmid. On the procedure: SSP/pLuc and SSP/p2CMVmIL-12 complexes formulated at various N/P ratios in 5% (w/v) glucose were evaluated for their transfection efficiency in CT-26 colon carcinoma cell lines. In the case of luciferase gene controls, cells were lysed after transfection and the relative light units (RLU) and total protein concentration were determined. […] The transfection efficiency increased with the increase in N/P ratios but diminished slightly with ratios 50/1 and above which could possibly be due to cytotoxicity towards CT-26 cells. On visual inspection under light microscope some granulation of cells was found, and cytotoxicity tests indicate that above N/P ratios 50/1 the cell viability is reduced by about 80%, which would account for lower gene expression.
In case of pLuc, CT-26 cells were seeded in 12-well tissue culture plates at 1×10^5 cells per/well in 10% FBS containing RPMI 1640 media. Cells achieved 70% confluency within 24 hours, after which they were transfected with SSP/pDNA complexes prepared at different N/P ratios ranging from 5/1 to 50/1 as described above. […] Luciferase activity was measured in terms of relative light units (RLU) using 96 well plate Luminometer (Dynex Technologies Inc, Chantilly, Va.). The luciferase activity was monitored and integrated over a period of 30 secs. […]

Data set [2] has as its system CT-26 cells. As to the kind of experiment: Membrane permeabilization study (ethidium bromide staining, flow cytometry). It counts as cell-based. Particulars: for levels of staining: pH 7.4; for cells stained (ethidium bromide fluorescence): 10 μM SSP. On the procedure: Membrane permeabilization studies were performed to find out whether SSP was able to form pores through plasma membranes and whether this phenomenon had any pH dependence or not. SSP prepared according to Example 1 was used at micromolar concentrations on cells preincubated with ethidium bromide, which intercalates between the strands of dsDNA and causes it to fluoresce. Ethidium bromide on its own is a poor membrane permeant, however, if the membranes are permeabilized, it would rapidly cross the cytoplasm, accumulate in the nucleus, and bind to the cellular DNA. Its fluorescent property would allow us to thus find the extent to which permeabilization via SSP occurred.
The membrane permeabilization activity of SSP was determined using flow cytometry. CT-26 cells were grown overnight and at 70-80% confluency were trypsinized and centrifuged. Cells were washed several times in 1×PBS (pH 7.4) and eventually resuspended in it to make cell suspensions of 1×10^6 cells/ml. One microliter of ethidium bromide (10 mg/ml) was mixed in 0.5 ml of cell suspension aliquots and stored at 4° C. 15 minutes before use. The pH of cell suspensions was adjusted to values 5,6,7, or 8 using either 1N NaOH or 1N HCl solutions 5 minutes before starting the experiment. SSP was finally used to permeabilize the membranes at the same final concentration for pH studies or at different concentrations at pH 7.4. Temperature effects at 4° C. and 37° C. were also studied to find any temperature dependent differences in permeabilization. After 5 and 15 minutes incubation, the cell fluorescence intensity was measured using FACScan Analyzer (Becton Dickinson, Sunnyvale, Calif.), which has a single 15-mW argon (488 nm) laser light source. A 585 nm long pass filter was used to collect the emitted red fluorescence. The forward scatter, side scatter, and ethidium bromide fluorescence were simultaneously recorded with 10,000 cells at 300 events per second. The results were later analyzed using cell quest software provided by the same manufacturer. Histogram statistics were used to quantitatively determine the extent of permeabilization.
Background: A flow cytometer gives signals particle by particle.

Data set [3] concerns plasmid DNA. Description: Condensation of plasmid DNA (gel electrophoresis). It counts as physicochemical. Particulars: 4.5% (w/v) glucose, phosphate buffer pH 8.0. On the procedure:
Various formulations of SSP/p2CMVmIL-12 were prepared as follows: 100 μL aliquots of SSP at various concentrations and pDNA (0.2 mg/ml) were prepared in 4.5% (w/v) glucose to bring the osmolality to 285-295 mOsm, and 1M phosphate buffer was used to bring the pH to 8.0 of both aliquots. SSP/pDNA complexes at various N/P ratios ranging from 0.5/1 (N/P) to 50/1 (N/P) were prepared by rapidly mixing contents of SSP aliquot in pDNA aliquots using a pipettor. N/P ratio was calculated by taking into account 3 nitrogens for each arginine in SSP, thereby resulting in 18 nitrogens for each SSP molecule. The SSP/pDNA complexes were incubated for 15 minutes at room temperature before electrophoresis.

For data set [4] the following is noted: mouse, CT-26 colon adeno-carcinoma cells.
Description: (§1) Cytotoxicity of SSP/p2CMVmIL-12 complexes prepared at different N/P ratios were assessed using an MTT assay. CT-26 colon adeno-carcinoma cells were grown and maintained in RPMI 1640 medium (GIBCO-BRL, Gaithersburg, Md.), which was supplemented with 10% fetal bovine serum (FBS), 100 U/ml penicillin, 100 U/ml streptomycin and 50 μg/ml gentamycin (all from Gibco-BRL, Gaithersburg, Md.) at 37° C. and humidified 5% CO2.
(§2) Briefly, CT-26 cell lines were seeded in 96 well plates at 4000 cells/well and incubated for 24 hours. After checking the cell confluency, which was over 80%, SSP/p2CMVmIL-12 complexes prepared at N/P ratios ranging from 5/1 to 100/1 were added to the cells at a dose of 0.15 μg pmIL-12/well. Following 48 hrs of incubation, 25 μl of 5 mg/ml 3-[4,5-dimethylthiazol-2-yl]-2,5-diphenyltetrazolium bromide (MTT, Sigma Chemical Co., St. Louis, Mo.) stock solution in phosphate buffered saline (PBS, Gibco-BRL) was poured into each well reaching a final concentration of 0.5 mg/ml MTT. The plate was then incubated at 37° C. in 5% CO2 for 4 hrs. The medium was removed and 150 μl of dimethyl sulfoxide (DMSO, Aldrich) was added to dissolve the formazan crystals. The plate was read spectrophotometrically at 570 nm in an ELISA plate reader. The relative cell viability was calculated as [Abs]sample/[Abs]control×100. […]
The test system of data set [5] is CT-26 colon adeno-carcinoma cells. Description: Cytotoxicity MTT assay. Particulars: SSP alone, amounts equivalent to those used in N/P ratios 20/1. A general note: Tetrazolium assays rely on reduction of a dye to a coloured formazan, in cell work by metabolically active cells.
Description: as §1, §2

In general, viability refers to a read-out of living cells in per cent, often relative to untreated cells.

Take “HHYRRRHKSRRRLHH [Peptide sequence, reference compound]”: the “transfection / gene expression (in words)” value in data set [1] is listed as “not effective”.
For the compound `CC(C)C[C@H](NC(=O)[C@H](CCCNC(=N)N)NC(=O)[C@H](CCCNC(=N)N)NC(=O)[C@H](CCCNC(=N)N)NC(=O)[C@H](CO)NC(=O)[C@H](CCCCNC(=O)CC[C@@H](C)[C@H]1CC[C@H]2[C@@H]3CC[C@@H]4C[C@H](O)CC[C@]4(C)[C@H]3CC[C@]12C)NC(=O)[C@H](Cc1c[nH]cn1)NC(=O)[C@H](CCCNC(=N)N)NC(=O)[C@H](CCCNC(=N)N)NC(=O)[C@H](CCCNC(=N)N)NC(=O)[C@H](Cc1ccc(O)cc1)NC(=O)[C@H](Cc1c[nH]cn1)NC(=O)[C@@H](N)Cc1c[nH]cn1)C(=O)N[C@@H](Cc1c[nH]cn1)C(=O)N[C@@H](Cc1c[nH]cn1)C(N)=O` [SSP] (H-HHYRRRHK(Lithocholoyl)SRRRLHH-NH2; N-terminus and C-terminus assumed), the levels of staining is on record as more than 85% in data set [2] (5 μM of SSP or above); approximately 100% in data set [2] (10 μM SSP and above). Moreover, the “cells stained (ethidium bromide fluorescence)” value in data set [2] (pH 5 and 6, within 5 minutes) is reported as “over 97%”; in data set [2] (pH 5 and 6, within 5 minutes, listed as soluble steroidal peptide), “less than 25%”; in data set [2] (pHs above the pKa of the imidazole ring of histidine (pKa=6.1), pH 7 and 8), less than 25%. Moreover, the “N/P ratio at which pDNA is condensed completely” value in data set [3] is given as 3/1. Also, the “transfection / gene expression (in words)” value in data set [1] is listed as “did not give any gene expression”. The compound also registered a viability at 48 h in data set [4] of approximately 75%. In addition, the “cytotoxicity (in words)” value in data set [5] is listed as “non-toxic”.
